# What was measured:
# Human κ-Opioid (KOP) = target: T1, Human κ-Opioid (KOP) (Homo sapiens, UniProt P41145); test: Radioligand binding, human κ-opioid (KOP) membranes, filtration, [3H]-Diprenorphine; details: compound at 10 μM, [3H]-Diprenorphine
# T1 construct: purchased Perkin Elmer Biosignal
# Method in brief: (§1)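 Filtration binding on cloned human receptor membranes (1 Unit/well), [125I]-Substance P for NK1 and [3H]-Diprenorphine for KOP, 1 h at room temperature. Filters PEI-presoaked, washed with cold 50 mM Tris-HCl pH 7.4, counted by scintillation; percent inhibition calculated, reference ligand defining non-specific binding.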
# Human Melanocortin (MC4) = target: T2, Human Melanocortin (MC4) (Homo sapiens, UniProt P32245); test: Radioligand binding, human melanocortin MC4 membranes, FlashPlate, [125I]-NDP-αMSH; details: compound at 10 μM, [125I]-NDP-αMSH
# T2 construct: purchased Perkin Elmer Biosignal
# T2 sequence (P32245 whole entry): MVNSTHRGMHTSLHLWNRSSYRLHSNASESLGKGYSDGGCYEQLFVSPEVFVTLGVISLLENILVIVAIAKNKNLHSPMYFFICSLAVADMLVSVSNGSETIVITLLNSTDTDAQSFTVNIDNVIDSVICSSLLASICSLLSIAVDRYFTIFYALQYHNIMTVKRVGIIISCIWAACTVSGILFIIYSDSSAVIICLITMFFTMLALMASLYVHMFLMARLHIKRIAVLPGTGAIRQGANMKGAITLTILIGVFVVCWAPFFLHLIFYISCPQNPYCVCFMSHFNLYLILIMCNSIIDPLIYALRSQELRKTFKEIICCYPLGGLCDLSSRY
# Method in brief: (§2)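 Cloned human receptor membranes were coated onto FlashPlate wells and incubated with radioligand and compound (added from a 0.5 mM DMSO daughter plate) for 1 hour at room temperature in the dark. Scintillation counting gave percent inhibition, with DMSO defining total and reference ligand defining non-specific binding.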
# Human melanocortin (MC5) = target: T3, Human melanocortin (MC5) (Homo sapiens, UniProt P33032); test: Radioligand binding, human melanocortin MC5 membranes, FlashPlate, [125I]-NDP-αMSH; details: compound at 10 μM, [125I]-NDP-αMSH
# T3 construct: purchased Perkin Elmer Biosignal
# T3 sequence (P33032 whole entry): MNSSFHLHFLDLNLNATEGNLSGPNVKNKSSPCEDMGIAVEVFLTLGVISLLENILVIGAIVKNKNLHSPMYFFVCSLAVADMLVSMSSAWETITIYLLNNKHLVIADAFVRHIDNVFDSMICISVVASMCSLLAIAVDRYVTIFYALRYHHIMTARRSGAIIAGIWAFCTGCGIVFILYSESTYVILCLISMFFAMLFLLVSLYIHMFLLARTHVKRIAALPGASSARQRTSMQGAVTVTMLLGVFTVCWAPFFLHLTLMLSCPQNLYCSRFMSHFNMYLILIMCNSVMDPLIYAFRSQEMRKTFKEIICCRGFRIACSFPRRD
# Method in brief: as §2
# Human neurokinin (NK1) = target: T4, Human neurokinin (NK1) (Homo sapiens, UniProt P25103); test: Radioligand binding, human neurokinin NK1 membranes, filtration, [125I]-Substance P; details: compound at 10 μM, [125I]-Substance P
# T4 construct: purchased Perkin Elmer Biosignal
# T4 sequence (P25103 whole entry): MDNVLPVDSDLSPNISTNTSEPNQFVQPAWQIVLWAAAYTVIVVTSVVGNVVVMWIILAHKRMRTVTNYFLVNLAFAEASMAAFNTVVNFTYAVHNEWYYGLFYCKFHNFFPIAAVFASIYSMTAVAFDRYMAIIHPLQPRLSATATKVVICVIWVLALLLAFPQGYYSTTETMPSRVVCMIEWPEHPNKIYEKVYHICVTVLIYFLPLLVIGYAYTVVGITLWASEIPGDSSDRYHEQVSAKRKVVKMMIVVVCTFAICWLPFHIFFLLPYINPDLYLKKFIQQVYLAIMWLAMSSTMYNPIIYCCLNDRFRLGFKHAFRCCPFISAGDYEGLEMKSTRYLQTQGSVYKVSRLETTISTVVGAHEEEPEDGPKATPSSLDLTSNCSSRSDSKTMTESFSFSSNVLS
# Method in brief: as §1
# Human μ-opioid (MOP) = target: T5, Human μ-opioid (MOP) (Homo sapiens, UniProt P35372); test: Radioligand binding, human μ-opioid (MOP) membranes, FlashPlate, [3H]-Naloxone; details: compound at 10 μM, [3H]-Naloxone
# T5 construct: purchased Perkin Elmer Biosignal
# T5 sequence (P35372 whole entry): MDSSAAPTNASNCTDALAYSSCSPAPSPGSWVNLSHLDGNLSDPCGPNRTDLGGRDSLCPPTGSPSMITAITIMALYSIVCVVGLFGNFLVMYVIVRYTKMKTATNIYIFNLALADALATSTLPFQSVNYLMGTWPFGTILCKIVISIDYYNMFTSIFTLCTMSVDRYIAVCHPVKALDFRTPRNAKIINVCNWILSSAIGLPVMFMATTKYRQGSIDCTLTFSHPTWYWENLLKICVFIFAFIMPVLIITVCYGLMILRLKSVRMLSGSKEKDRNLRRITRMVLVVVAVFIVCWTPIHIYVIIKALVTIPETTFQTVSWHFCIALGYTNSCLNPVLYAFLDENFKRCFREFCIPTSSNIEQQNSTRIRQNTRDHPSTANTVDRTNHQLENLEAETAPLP
# Method in brief: as §2
# Human δ-opioid (DOP) = target: T6, Human δ-opioid (DOP) (Homo sapiens, UniProt P41143); test: Radioligand binding, human δ-opioid (DOP) membranes, FlashPlate, [3H]-Bremazocine; details: compound at 10 μM, [3H]-Bremazocine
# T6 construct: purchased Perkin Elmer Biosignal
# T6 sequence (P41143 whole entry): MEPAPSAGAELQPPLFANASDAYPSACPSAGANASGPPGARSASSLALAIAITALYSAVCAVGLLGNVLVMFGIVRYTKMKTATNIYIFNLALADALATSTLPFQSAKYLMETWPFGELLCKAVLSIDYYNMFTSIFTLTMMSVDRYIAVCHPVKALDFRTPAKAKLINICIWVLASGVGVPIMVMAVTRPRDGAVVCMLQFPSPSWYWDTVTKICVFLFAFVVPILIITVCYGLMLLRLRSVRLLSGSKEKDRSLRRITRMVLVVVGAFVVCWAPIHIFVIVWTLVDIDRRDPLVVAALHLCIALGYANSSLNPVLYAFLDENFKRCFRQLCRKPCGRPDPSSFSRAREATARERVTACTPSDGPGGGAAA
# Method in brief: as §2
# Mouse urotensin (mUR2) = target: T7, Mouse urotensin (mUR2) (Mus musculus, UniProt Q8VIH9); test: Radioligand binding, mouse urotensin mUR2 membranes, FlashPlate, [125I]-Urotensin II; details: compound at 10 μM, [125I]-Urotensin II
# T7 construct: purchased Perkin Elmer Biosignal
# T7 sequence (Q8VIH9 1-385): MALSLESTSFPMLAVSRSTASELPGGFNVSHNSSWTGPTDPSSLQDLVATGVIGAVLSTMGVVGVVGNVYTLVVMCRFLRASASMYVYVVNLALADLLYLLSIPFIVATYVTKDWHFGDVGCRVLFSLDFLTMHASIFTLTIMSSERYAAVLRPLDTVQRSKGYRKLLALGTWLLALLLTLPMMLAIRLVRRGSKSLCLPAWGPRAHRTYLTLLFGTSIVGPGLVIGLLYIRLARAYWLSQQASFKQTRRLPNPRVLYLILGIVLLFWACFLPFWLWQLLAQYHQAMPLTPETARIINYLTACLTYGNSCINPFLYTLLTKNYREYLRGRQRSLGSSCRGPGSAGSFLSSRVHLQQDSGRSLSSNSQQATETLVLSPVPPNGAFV
# Method in brief: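 Cloned mouse urotensin (mUR2) receptor membranes from Perkin Elmer Biosignal were immobilized in FlashPlate microplates using a proprietary coating. Each well got 19.5 μl buffer, then 0.5 μl of DMSO, reference ligand, or compound. Adding 5 μl of [125I]-Urotensin II, diluted to 5× final concentration in binding buffer, started binding. Plates were sealed with TopSeal-A and incubated 1 hour at room temperature in the dark. Wells were counted for 30 seconds each on a TopCount after a 60-second delay, and percentage inhibition was calculated.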
# Human opioid (ORL1) = target: T8, Human opioid (ORL1) (Homo sapiens, UniProt P41146); test: Radioligand binding, human opioid ORL1 membranes, FlashPlate, [125I]-Nociceptin; details: compound at 10 μM, [125I]-Nociceptin
# T8 construct: purchased Perkin Elmer Biosignal
# T8 sequence (P41146 whole entry): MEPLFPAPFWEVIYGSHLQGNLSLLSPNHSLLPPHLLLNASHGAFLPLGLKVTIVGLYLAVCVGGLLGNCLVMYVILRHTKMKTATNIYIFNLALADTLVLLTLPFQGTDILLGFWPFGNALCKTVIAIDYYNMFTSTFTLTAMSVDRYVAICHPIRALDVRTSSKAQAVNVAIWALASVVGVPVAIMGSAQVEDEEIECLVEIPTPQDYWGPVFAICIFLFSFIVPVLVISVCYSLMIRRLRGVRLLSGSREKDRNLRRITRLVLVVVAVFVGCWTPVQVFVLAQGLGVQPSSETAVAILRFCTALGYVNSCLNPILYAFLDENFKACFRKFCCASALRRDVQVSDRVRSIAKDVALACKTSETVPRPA
# Method in brief: as §2
# [1] = target: T9, Human neuropeptide Y (NPY-Y1) (Homo sapiens, UniProt P25929); test: Radioligand binding, human neuropeptide Y NPY-Y1 membranes, FlashPlate, [125I]-PYY; details: compound at 10 μM, [125I]-PYY
# T9 construct: purchased Perkin Elmer Biosignal
# T9 sequence (P25929 1-384): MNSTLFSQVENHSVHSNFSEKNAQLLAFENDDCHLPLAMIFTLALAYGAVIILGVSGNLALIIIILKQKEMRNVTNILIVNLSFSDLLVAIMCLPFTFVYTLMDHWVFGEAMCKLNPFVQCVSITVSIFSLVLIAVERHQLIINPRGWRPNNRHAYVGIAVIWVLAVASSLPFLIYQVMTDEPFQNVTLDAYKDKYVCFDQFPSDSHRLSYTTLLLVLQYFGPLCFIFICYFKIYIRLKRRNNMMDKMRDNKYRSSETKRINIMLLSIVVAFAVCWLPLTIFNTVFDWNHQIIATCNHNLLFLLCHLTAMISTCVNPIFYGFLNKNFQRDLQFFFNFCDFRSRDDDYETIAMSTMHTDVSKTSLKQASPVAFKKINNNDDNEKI
# Method in brief: as §2
# [2] = target: T10, Human melanin-concentrating hormone (MCH1) (Homo sapiens, UniProt Q99705); test: Radioligand binding, human melanin-concentrating hormone MCH1 membranes, FlashPlate, [125I]-S36057; details: compound at 10 μM
# T10 construct: purchased Perkin Elmer Biosignal
# T10 sequence (Q99705 whole entry): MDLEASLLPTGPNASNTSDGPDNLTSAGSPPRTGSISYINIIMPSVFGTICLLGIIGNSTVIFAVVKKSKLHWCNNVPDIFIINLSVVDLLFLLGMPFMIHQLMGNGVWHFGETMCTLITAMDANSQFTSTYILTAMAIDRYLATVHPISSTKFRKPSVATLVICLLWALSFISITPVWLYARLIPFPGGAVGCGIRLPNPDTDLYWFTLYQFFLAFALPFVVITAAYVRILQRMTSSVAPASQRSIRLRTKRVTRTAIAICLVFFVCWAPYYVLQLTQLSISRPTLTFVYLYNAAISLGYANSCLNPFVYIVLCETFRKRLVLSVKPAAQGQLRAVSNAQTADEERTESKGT
# Method in brief: as §2
# Human Melanocortin (MC3) = target: T11, Human Melanocortin (MC3) (Homo sapiens, UniProt P41968); test: Radioligand binding, human melanocortin MC3 membranes, FlashPlate, [125I]-NDP-αMSH; details: compound at 10 μM, [125I]-NDP-αMSH
# T11 construct: purchased Perkin Elmer Biosignal
# T11 sequence (P41968 whole entry): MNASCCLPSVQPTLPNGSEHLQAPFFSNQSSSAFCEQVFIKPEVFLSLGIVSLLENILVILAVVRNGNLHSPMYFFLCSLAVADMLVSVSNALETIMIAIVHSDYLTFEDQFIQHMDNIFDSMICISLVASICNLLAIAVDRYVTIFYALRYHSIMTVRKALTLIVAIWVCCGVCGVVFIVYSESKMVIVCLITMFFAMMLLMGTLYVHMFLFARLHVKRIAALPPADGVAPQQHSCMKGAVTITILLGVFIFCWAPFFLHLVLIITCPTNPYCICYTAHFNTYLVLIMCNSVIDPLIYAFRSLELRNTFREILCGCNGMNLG
# Method in brief: as §2
# T1 sequence (P41145 whole entry): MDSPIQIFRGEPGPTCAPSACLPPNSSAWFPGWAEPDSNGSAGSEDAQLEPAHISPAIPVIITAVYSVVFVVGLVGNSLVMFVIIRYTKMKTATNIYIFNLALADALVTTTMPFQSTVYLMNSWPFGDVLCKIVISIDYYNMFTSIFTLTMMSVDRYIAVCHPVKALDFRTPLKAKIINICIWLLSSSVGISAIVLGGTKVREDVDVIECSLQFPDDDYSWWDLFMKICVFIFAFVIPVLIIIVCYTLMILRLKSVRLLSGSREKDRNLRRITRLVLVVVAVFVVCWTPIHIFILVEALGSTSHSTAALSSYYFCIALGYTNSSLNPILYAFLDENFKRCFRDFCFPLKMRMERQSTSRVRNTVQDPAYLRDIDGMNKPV
smiles,measurement,setting,value
COC1C(O)C(COCc2ccc3ccccc3c2)OC(OCc2ccc(Cl)cc2)C1NC(=O)C1CCCN(C(=N)N)C1 (stereo not shown) [compound 348],"A2: inhibition of radioligand binding, human κ-opioid (KOP)",Human κ-Opioid (KOP),− (“−” indicates less than 50% inhibition at 10 μM)
same,"A4: inhibition of radioligand binding, human melanocortin (MC4)",Human Melanocortin (MC4),− (“−” indicates less than 50% inhibition at 10 μM)
same,"A5: inhibition of radioligand binding, human melanocortin (MC5)",Human melanocortin (MC5),+ (“+” indicates greater than 50% inhibition at 10 μM)
same,"A8: inhibition of radioligand binding, human neurokinin (NK1)",Human neurokinin (NK1),+ (“+” indicates greater than 50% inhibition at 10 μM)
same,"A7: inhibition of radioligand binding, human μ-opioid (MOP)",Human μ-opioid (MOP),− (“−” indicates less than 50% inhibition at 10 μM)
same,"A1: inhibition of radioligand binding, human δ-opioid (DOP)",Human δ-opioid (DOP),− (“−” indicates less than 50% inhibition at 10 μM)
same,"A11: inhibition of radioligand binding, mouse urotensin (mUR2)",Mouse urotensin (mUR2),− (“−” indicates less than 50% inhibition at 10 μM)
same,"A10: inhibition of radioligand binding, human opioid (ORL1)",Human opioid (ORL1),− (“−” indicates less than 50% inhibition at 10 μM)
same,"A9: inhibition of radioligand binding, human neuropeptide Y (NPY-Y1)",[1],− (“−” indicates less than 50% inhibition at 10 μM)
same,"A6: inhibition of radioligand binding, human melanin-concentrating hormone (MCH1)",[2]; [125I]-S36057,− (“−” indicates less than 50% inhibition at 10 μM)
same,"A3: inhibition of radioligand binding, human melanocortin (MC3)",Human Melanocortin (MC3),− (“−” indicates less than 50% inhibition at 10 μM)
COCC1OC(OCc2ccc3ccccc3c2)C(NC(=O)CCCNC(=N)N)C(OCc2ccccc2)C1O (stereo not shown) [compound 234],A2: inhibition of radioligand binding,Human κ-Opioid (KOP); filtration,− (“−” indicates less than 50% inhibition at 10 μM)
same,A4: inhibition of radioligand binding,Human Melanocortin (MC4); FlashPlate,− (“−” indicates less than 50% inhibition at 10 μM)
same,A5: inhibition of radioligand binding,Human melanocortin (MC5); FlashPlate,− (“−” indicates less than 50% inhibition at 10 μM)
same,A8: inhibition of radioligand binding,Human neurokinin (NK1); filtration,+ (“+” indicates greater than 50% inhibition at 10 μM)
same,A7: inhibition of radioligand binding,Human μ-opioid (MOP); FlashPlate,− (“−” indicates less than 50% inhibition at 10 μM)
same,A1: inhibition of radioligand binding,Human δ-opioid (DOP); FlashPlate,− (“−” indicates less than 50% inhibition at 10 μM)
same,A11: inhibition of radioligand binding,Mouse urotensin (mUR2); FlashPlate,− (“−” indicates less than 50% inhibition at 10 μM)
same,A10: inhibition of radioligand binding,Human opioid (ORL1); FlashPlate,− (“−” indicates less than 50% inhibition at 10 μM)
same,A9: inhibition of radioligand binding,[1]; FlashPlate,− (“−” indicates less than 50% inhibition at 10 μM)
same,A6: inhibition of radioligand binding,"[2]; [125I]-S36057, FlashPlate",− (“−” indicates less than 50% inhibition at 10 μM)
same,A3: inhibition of radioligand binding,Human Melanocortin (MC3); FlashPlate,− (“−” indicates less than 50% inhibition at 10 μM)
CO[C@H]1[C@H](O)[C@@H](COCc2ccc(Cl)cc2)OC(OCCc2ccccc2)[C@@H]1NC(=O)CCNC(=N)N (stereo partly shown) [compound 120],"A2 radioligand binding, percentage inhibition",Human κ-Opioid (KOP),+ (“+” indicates greater than 50% inhibition at 10 μM)
same,"A4 radioligand binding, percentage inhibition",Human Melanocortin (MC4),+ (“+” indicates greater than 50% inhibition at 10 μM)
same,"A5 radioligand binding, percentage inhibition",Human melanocortin (MC5),+ (“+” indicates greater than 50% inhibition at 10 μM)
same,"A8 radioligand binding, percentage inhibition",Human neurokinin (NK1),+ (“+” indicates greater than 50% inhibition at 10 μM)
same,"A7 radioligand binding, percentage inhibition",Human μ-opioid (MOP),− (“−” indicates less than 50% inhibition at 10 μM)
same,"A1 radioligand binding, percentage inhibition",Human δ-opioid (DOP),− (“−” indicates less than 50% inhibition at 10 μM)
same,"A11 radioligand binding, percentage inhibition",Mouse urotensin (mUR2),− (“−” indicates less than 50% inhibition at 10 μM)
same,"A10 radioligand binding, percentage inhibition",Human opioid (ORL1),− (“−” indicates less than 50% inhibition at 10 μM)
same,"A9 radioligand binding, percentage inhibition",[1],− (“−” indicates less than 50% inhibition at 10 μM)
same,"A6 radioligand binding, percentage inhibition",[2]; [125I]-S36057,− (“−” indicates less than 50% inhibition at 10 μM)
same,"A3 radioligand binding, percentage inhibition",Human Melanocortin (MC3),− (“−” indicates less than 50% inhibition at 10 μM)
CO[C@H]1[C@H](O)[C@@H](COCc2ccc3ccccc3c2)OC(OCc2cccc(O)c2)[C@@H]1NC(=O)CCCNC(=N)N (stereo partly shown) [compound 168],"A2 radioligand binding, percentage inhibition",Human κ-Opioid (KOP),− (“−” indicates less than 50% inhibition at 10 μM)
same,"A4 radioligand binding, percentage inhibition",Human Melanocortin (MC4),− (“−” indicates less than 50% inhibition at 10 μM)
same,"A5 radioligand binding, percentage inhibition",Human melanocortin (MC5),− (“−” indicates less than 50% inhibition at 10 μM)
same,"A8 radioligand binding, percentage inhibition",Human neurokinin (NK1),+ (“+” indicates greater than 50% inhibition at 10 μM)
same,"A7 radioligand binding, percentage inhibition",Human μ-opioid (MOP),+ (“+” indicates greater than 50% inhibition at 10 μM)
same,"A1 radioligand binding, percentage inhibition",Human δ-opioid (DOP),− (“−” indicates less than 50% inhibition at 10 μM)
same,"A11 radioligand binding, percentage inhibition",Mouse urotensin (mUR2),− (“−” indicates less than 50% inhibition at 10 μM)
same,"A10 radioligand binding, percentage inhibition",Human opioid (ORL1),− (“−” indicates less than 50% inhibition at 10 μM)
same,"A9 radioligand binding, percentage inhibition",[1],− (“−” indicates less than 50% inhibition at 10 μM)
same,"A6 radioligand binding, percentage inhibition",[2]; [125I]-S36057,− (“−” indicates less than 50% inhibition at 10 μM)
same,"A3 radioligand binding, percentage inhibition",Human Melanocortin (MC3),− (“−” indicates less than 50% inhibition at 10 μM)
NCCCC(=O)NC1C(OCc2ccc3ccccc3c2)OC(COCc2ccccc2)C(O)C1OCc1ccc2ccccc2c1 (stereo not shown) [compound 394],A2: inhibition of radioligand binding,Human κ-Opioid (KOP); human KOP membranes,− (“−” indicates less than 50% inhibition at 10 μM)
same,A4: inhibition of radioligand binding,"Human Melanocortin (MC4); human MC4 membranes, 10 µM",+ (“+” indicates greater than 50% inhibition at 10 μM)
same,A5: inhibition of radioligand binding,Human melanocortin (MC5); human MC5 membranes,+ (“+” indicates greater than 50% inhibition at 10 μM)
same,A8: inhibition of radioligand binding,Human neurokinin (NK1); human NK1 membranes,+ (“+” indicates greater than 50% inhibition at 10 μM)
same,A7: inhibition of radioligand binding,Human μ-opioid (MOP); human MOP membranes,− (“−” indicates less than 50% inhibition at 10 μM)
same,A1: inhibition of radioligand binding,Human δ-opioid (DOP); human DOP membranes,− (“−” indicates less than 50% inhibition at 10 μM)
same,A11: inhibition of radioligand binding,Mouse urotensin (mUR2); mouse mUR2 membranes,− (“−” indicates less than 50% inhibition at 10 μM)
same,A10: inhibition of radioligand binding,"Human opioid (ORL1); human ORL1 membranes, 10 µM",− (“−” indicates less than 50% inhibition at 10 μM)
same,A9: inhibition of radioligand binding,[1]; human NPY-Y1 membranes,− (“−” indicates less than 50% inhibition at 10 μM)
same,A6: inhibition of radioligand binding,"[2]; [125I]-S36057, human MCH1 membranes",− (“−” indicates less than 50% inhibition at 10 μM)
same,A3: inhibition of radioligand binding,"Human Melanocortin (MC3); human MC3 membranes, 10 µM",+ (“+” indicates greater than 50% inhibition at 10 μM)

# Reference: US20080009418A1, “Selective Inhibitors” (Alchemia LTD., priority 2004, published 2008)
